SMILES strings stand for the structures. Where a SMILES comes first, the peptide text is derived from it. Bridges are numbered along the chain shown (N, C = ends). [ ]: non-standard residue; d: D form. The star is where a group is joined. Phe(4-CF3) = N[C@@H](Cc1ccc(C(F)(F)F)cc1)C(=O)O; Phe(4-COOH) = N[C@@H](Cc1ccc(C(=O)O)cc1)C(=O)O; Bip = N[C@@H](Cc1ccc(-c2ccccc2)cc1)C(=O)O; Phe(3-Me) = Cc1cccc(C[C@H](N)C(=O)O)c1; NH(CH2)12COOH = O=C(O)CCCCCCCCCCCCN*; Val(3-OH) = CC(C)(O)[C@H](N)C(=O)O; hArg = N=C(N)NCCCC[C@H](N)C(=O)O; 4Pal = N[C@@H](Cc1ccncc1)C(=O)O; Cha = N[C@@H](CC1CCCCC1)C(=O)O; Cit = NC(=O)NCCC[C@H](N)C(=O)O; Chg = N[C@H](C(=O)O)C1CCCCC1; hSer = N[C@@H](CCO)C(=O)O; Carboxymethyl = O=C(O)C*; NMeA = CN[C@@H](C)C(=O)O; Aun = NCCCCCCCCCCC(=O)O; Dab = NCC[C@H](N)C(=O)O; Dap = NC[C@H](N)C(=O)O; AEEA = NCCOCCOCC(=O)O

For one test, the target named is T1, PD-1/PD-L1 interaction (PE-labeled human PD-L1-Ig binding to Jurkat cell line over-expressing human PD-1) (Homo sapiens, UniProt Q15116).
T1 construct: expressed in transfected cells; host or cells: Jurkat
T1 sequence (Q15116 25-288): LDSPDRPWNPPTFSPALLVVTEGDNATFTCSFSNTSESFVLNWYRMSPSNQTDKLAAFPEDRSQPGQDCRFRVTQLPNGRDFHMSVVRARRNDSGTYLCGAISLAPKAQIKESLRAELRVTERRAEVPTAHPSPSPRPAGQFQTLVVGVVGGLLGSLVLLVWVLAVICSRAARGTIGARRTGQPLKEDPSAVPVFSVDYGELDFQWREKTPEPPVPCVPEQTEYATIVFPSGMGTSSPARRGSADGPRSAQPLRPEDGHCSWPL
The experiment in a line: Jurkat-PD-1 Cell Binding High-Content Screening Assay (CBA). The note with it: Jurkat-hPD-1 cells, PE-labeled PD-L1-Ig 20 nM final; read-out: Jurkat HPD1 PDL1 IC50. The method, boiled down: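 Jurkat-hPD-1 cells (8×10^3/well) in DMEM with 10% fetal calf serum were preincubated with compound for 2 h at 37 °C. PE-labeled PD-L1-Ig was then added at 20 nM final for 1 h. Cells were fixed in paraformaldehyde with Hoechst 33342, washed and imaged by high-content imaging.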
Consider `CC(C)C[C@@H]1NC(=O)[C@H](Cc2c[nH]c3ccccc23)NC(=O)[C@H](CC(=O)O)NC(=O)[C@H](Cc2ccc(OCC(=O)O)cc2)NC(=O)[C@H](CCCCNC(=N)N)NC(=O)CSC[C@@H](C(=O)NCC(=O)NCCOCCOCC(=O)N[C@@H](CCCNC(N)=O)C(=O)NCCCCCCCCCCC(=O)O)NC(=O)[C@H](CCCNC(N)=O)NC(=O)[C@H](C(C)C)NC(=O)[C@H](CC2CCCCC2)NC(=O)[C@H](CCN)NC(=O)[C@@H](CC(C)C)NC(=O)[C@H](C)N(C)C(=O)[C@H](C(C)C)NC(=O)[C@H](Cc2ccc(-c3ccccc3)cc2)NC1=O` [Example 2182] ({CH2CO}-[hArg]Y(Carboxymethyl)DWL[Bip]V[NMeA][dL][Dab][Cha]V[Cit]CG[AEEA][Cit][Aun]-OH; thioether N-14), for which the IC50 (as a rule, the midpoint of a concentration-inhibition curve) was determined as 0.0123 µM.

Turning to `Cc1cccc(C[C@@H]2NC(=O)[C@H](CC(=O)O)NC(=O)[C@H](Cc3ccc(C(=O)O)cc3)NC(=O)[C@H](Cc3ccncc3)NC(=O)CSC[C@@H](C(=O)N[C@@H](CCN)C(=O)NCCCCCCCCCCC(=O)O)NC(=O)[C@H](CO)NC(=O)[C@H](C(C)(C)O)NC(=O)[C@H](CC3CCCCC3)NC(=O)[C@H](CCN)NC(=O)[C@@H](CC(C)C)NC(=O)[C@H](C)N(C)C(=O)[C@H](Cc3ccc(OCC(=O)O)cc3)NC(=O)[C@H](Cc3ccc(-c4ccccc4)cc3)NC(=O)[C@H](Cc3ccc(OCC(=O)O)cc3)NC2=O)c1` [Example 1282] ({CH2CO}-[4Pal][Phe(4-COOH)]D[Phe(3-Me)]Y(Carboxymethyl)[Bip]Y(Carboxymethyl)[NMeA][dL][Dab][Cha][Val(3-OH)]SC[Dab][Aun]-OH; thioether N-14), the IC50 amounted to 0.0072 µM. Still for that read-out and setting: the same measure for `CC(C)C[C@@H]1NC(=O)[C@H](Cc2c[nH]c3ccccc23)NC(=O)[C@H](CC(=O)O)NC(=O)[C@H](Cc2ccc(OCC(=O)O)cc2)NC(=O)[C@H](Cc2ccc(OCC(=O)O)cc2)NC(=O)CSC[C@@H](C(=O)N[C@@H](CCCCN)C(=O)NCCOCCOCC(=O)NCCCCCCCCCCC(=O)O)NC(=O)[C@H](CN)NC(=O)[C@H](C(C)C)NC(=O)[C@H](CC2CCCCC2)NC(=O)[C@H](CCN)NC(=O)[C@@H](CC(C)C)NC(=O)[C@H](C)N(C)C(=O)[C@H](C(C)C)NC(=O)[C@H](Cc2ccc(-c3ccccc3)cc2)NC1=O` [Example 2154] ({CH2CO}-Y(Carboxymethyl)Y(Carboxymethyl)DWL[Bip]V[NMeA][dL][Dab][Cha]V[Dap]CK[AEEA][Aun]-OH; thioether N-14): 0.011 µM. On the same count and under the same terms, the same measure for `CC(C)C[C@H]1NC(=O)[C@H](C)N(C)C(=O)[C@H](Cc2ccc(OCC(=O)O)cc2)NC(=O)[C@H](Cc2ccc(-c3ccccc3)cc2)NC(=O)[C@H](Cc2ccc(OCC(=O)O)cc2)NC(=O)[C@H](Cc2c[nH]c3ccccc23)NC(=O)[C@H](CC(=O)O)NC(=O)[C@H](Cc2ccncc2)NC(=O)[C@H](Cc2ccc(OCC(=O)O)cc2)NC(=O)CSC[C@@H](C(=O)N[C@@H](CCN)C(=O)NCCOCCOCC(=O)NCCCCCCCCCCC(=O)O)NC(=O)[C@H]([C@@H](C)O)NC(=O)[C@H](C(C)C)NC(=O)[C@H](CC2CCCCC2)NC(=O)[C@H](CC(N)=O)NC1=O` [Example 1378] ({CH2CO}-Y(Carboxymethyl)[4Pal]DWY(Carboxymethyl)[Bip]Y(Carboxymethyl)[NMeA][dL]N[Cha]VTC[Dab][AEEA][Aun]-OH; thioether N-14): 0.0948 µM. Consider `Cc1cccc(C[C@@H]2NC(=O)[C@H](CC(=O)O)NC(=O)[C@H](Cc3ccc(C(=O)O)cc3)NC(=O)[C@H](Cc3ccncc3)NC(=O)CSC[C@@H](C(=O)N[C@@H](CCN)C(=O)NCCOCCOCC(=O)NCCCCCCCCCCCCC(=O)O)NC(=O)[C@H](CCC(=O)O)NC(=O)[C@H](C(C)(C)O)NC(=O)[C@H](CC3CCCCC3)NC(=O)[C@H](CCN)NC(=O)[C@@H](CC(C)C)NC(=O)[C@H](C)N(C)C(=O)[C@H](Cc3ccc(C(=O)O)cc3)NC(=O)[C@H](Cc3ccc(-c4ccccc4)cc3)NC(=O)[C@H](Cc3ccc(C(=O)O)cc3)NC2=O)c1` [Example 1104] ({CH2CO}-[4Pal][Phe(4-COOH)]D[Phe(3-Me)][Phe(4-COOH)][Bip][Phe(4-COOH)][NMeA][dL][Dab][Cha][Val(3-OH)]EC[Dab][AEEA]-{NH(CH2)12COOH}; thioether N-14), for which the IC50 was 0.559 µM.

In the case of `CC(=O)NCCCC[C@@H]1NC(=O)[C@H](Cc2ccc(-c3ccccc3)cc2)NC(=O)[C@H](CC(C)C)NC(=O)[C@H](Cc2c[nH]c3ccccc23)NC(=O)[C@H](CC(=O)O)NC(=O)[C@H](Cc2ccc(C(=O)O)cc2)NC(=O)[C@H](Cc2ccc(OCC(=O)O)cc2)NC(=O)CSC[C@@H](C(=O)NCCOCCOCC(=O)NCCCCCCCCCCC(=O)O)NC(=O)[C@H](CO)NC(=O)[C@H](C(C)C)NC(=O)[C@H](CC2CCCCC2)NC(=O)[C@H](CCN)NC(=O)[C@@H](CC(C)C)NC(=O)[C@H](C)N(C)C1=O` [Example 2229] ({CH2CO}-Y(Carboxymethyl)[Phe(4-COOH)]DWL[Bip]K(Ac)[NMeA][dL][Dab][Cha]VSC[AEEA][Aun]-OH; thioether N-14), the 50% inhibitory concentration (IC50) came to 0.0048 µM. Same read-out and setting: then `CC(C)C[C@@H]1NC(=O)[C@H](Cc2c[nH]c3ccccc23)NC(=O)[C@H](CC(=O)O)NC(=O)[C@H](Cc2ccc(C(=O)O)cc2)NC(=O)[C@H](Cc2ccncc2)NC(=O)CSC[C@@H](C(=O)N[C@@H](CCN)C(=O)NCCOCCOCC(=O)NCCCCCCCCCCC(=O)O)NC(=O)[C@H](CCC(=O)O)NC(=O)[C@H](C(C)(C)O)NC(=O)[C@H](CC2CCCCC2)NC(=O)[C@H](CCN)NC(=O)[C@@H](CC(C)C)NC(=O)[C@H](C)N(C)C(=O)[C@H](C(C)C)NC(=O)[C@H](Cc2ccc(-c3ccccc3)cc2)NC1=O` [Example 1429] ({CH2CO}-[4Pal][Phe(4-COOH)]DWL[Bip]V[NMeA][dL][Dab][Cha][Val(3-OH)]EC[Dab][AEEA][Aun]-OH; thioether N-14), with 0.143 µM; and `CC(=O)NCCCC[C@@H]1NC(=O)[C@H](Cc2ccc(-c3ccccc3)cc2)NC(=O)[C@H](C(C)C)NC(=O)[C@H](Cc2cccc(C)c2)NC(=O)[C@H](CC(=O)O)NC(=O)[C@H](Cc2ccc(OCC(=O)O)cc2)NC(=O)[C@H](Cc2ccc(OCC(=O)O)cc2)NC(=O)CSC[C@@H](C(=O)NCCOCCOCC(=O)NCCCCCCCCCCC(=O)O)NC(=O)[C@H](CCO)NC(=O)[C@H](C(C)C)NC(=O)[C@H](CC2CCCCC2)NC(=O)[C@H](CCN)NC(=O)[C@@H](CC(C)C)NC(=O)[C@H](C)N(C)C1=O` [Example 2222] ({CH2CO}-Y(Carboxymethyl)Y(Carboxymethyl)D[Phe(3-Me)]V[Bip]K(Ac)[NMeA][dL][Dab][Cha]V[hSer]C[AEEA][Aun]-OH; thioether N-14), with 0.0106 µM; and `CC(C)C[C@H]1NC(=O)[C@H](C)N(C)C(=O)[C@H](C(C)C)NC(=O)[C@H](Cc2ccc(-c3ccccc3)cc2)NC(=O)[C@H](C2CCCCC2)NC(=O)[C@H](Cc2c[nH]c3ccccc23)NC(=O)[C@H](CC(=O)O)NC(=O)[C@H](Cc2ccncc2)NC(=O)[C@H](Cc2ccc(OCC(=O)O)cc2)NC(=O)CSC[C@@H](C(=O)N[C@@H](CCCCN)C(=O)NCCOCCOCC(=O)NCCCCCCCCCCC(=O)O)NC(=O)[C@H](CO)NC(=O)[C@H](C(C)C)NC(=O)[C@H](CC2CCCCC2)NC(=O)[C@H](CC(=O)O)NC1=O` [Example 2092] ({CH2CO}-Y(Carboxymethyl)[4Pal]DW[Chg][Bip]V[NMeA][dL]D[Cha]VSCK[AEEA][Aun]-OH; thioether N-14), with 0.0728 µM.

Turning to `Cc1cccc(C[C@@H]2NC(=O)[C@H](CC(=O)O)NC(=O)[C@H](Cc3ccc(OCC(=O)O)cc3)NC(=O)[C@H](Cc3ccc(OCC(=O)O)cc3)NC(=O)CSC[C@@H](C(=O)N[C@@H](CCN)C(=O)NCCCCCCCCCCC(=O)O)NC(=O)[C@H](CO)NC(=O)[C@H](C(C)C)NC(=O)[C@H](CC3CCCCC3)NC(=O)[C@H](CCN)NC(=O)[C@@H](CC(C)C)NC(=O)[C@H](C)N(C)C(=O)[C@H](Cc3ccc(OCC(=O)O)cc3)NC(=O)[C@H](Cc3ccc(-c4ccccc4)cc3)NC(=O)[C@H](C(C)C)NC2=O)c1` [Example 1265] ({CH2CO}-Y(Carboxymethyl)Y(Carboxymethyl)D[Phe(3-Me)]V[Bip]Y(Carboxymethyl)[NMeA][dL][Dab][Cha]VSC[Dab][Aun]-OH; thioether N-14), the concentration for half-maximal inhibition (IC50) stood at 0.0441 µM.

Still in this test, the particulars now being: PE-labeled PD-L1-Ig 20 nM final, Jurkat-hPD-1 cells; read-out: Jurkat HPD1 PDL1 IC50.
For the molecule `Cc1cccc(C[C@@H]2NC(=O)[C@H](CC(=O)O)NC(=O)[C@H](Cc3ccc(OCC(=O)O)cc3)NC(=O)[C@H](Cc3ccncc3)NC(=O)CSC[C@@H](C(=O)N[C@@H](CCN)C(=O)NCCCCCCCCCCC(=O)O)NC(=O)[C@H](CO)NC(=O)[C@H](C(C)(C)O)NC(=O)[C@H](CC3CCCCC3)NC(=O)[C@H](Cc3c[nH]cn3)NC(=O)[C@@H](CC(C)C)NC(=O)[C@H](C)N(C)C(=O)[C@H](Cc3ccc(OCC(=O)O)cc3)NC(=O)[C@H](Cc3ccc(-c4ccccc4)cc3)NC(=O)[C@H](Cc3ccc(OCC(=O)O)cc3)NC2=O)c1` [Example 2466] ({CH2CO}-[4Pal]Y(Carboxymethyl)D[Phe(3-Me)]Y(Carboxymethyl)[Bip]Y(Carboxymethyl)[NMeA][dL]H[Cha][Val(3-OH)]SC[Dab][Aun]-OH; thioether N-14), the IC50 amounted to 0.0548 µM.

`CC(=O)NCCCC[C@@H]1NC(=O)[C@H](C(C)(C)O)NC(=O)[C@H](CC2CCCCC2)NC(=O)[C@H](CCN)NC(=O)[C@@H](CC(C)C)NC(=O)[C@H](C)N(C)C(=O)[C@H](CCC(N)=O)NC(=O)[C@H](Cc2ccc(-c3ccccc3)cc2)NC(=O)[C@H](Cc2ccc(C(=O)O)cc2)NC(=O)[C@H](Cc2cccc(C)c2)NC(=O)[C@H](CC(=O)O)NC(=O)[C@H](Cc2ccc(OCC(=O)O)cc2)NC(=O)[C@H](Cc2ccc(C(F)(F)F)cc2)NC(=O)CSC[C@@H](C(=O)N[C@@H](CCN)C(=O)NCCOCCOCC(=O)NCCCCCCCCCCC(=O)O)NC1=O` [Example 2596] ({CH2CO}-[Phe(4-CF3)]Y(Carboxymethyl)D[Phe(3-Me)][Phe(4-COOH)][Bip]Q[NMeA][dL][Dab][Cha][Val(3-OH)]K(Ac)C[Dab][AEEA][Aun]-OH; thioether N-14): the IC50 was 0.0027 µM.

These data come from patent US20260070945A1, “MACROCYCLIC IMMUNOMODULATORS” (Bristol-Myers Squibb Company, priority 2022, published 2026).
